Experimental data from US20260231951A1, “COATED SEEDS AND METHODS TO IMPROVE CROPS” (MONTANA STATE UNIVERSITY, priority 2023, published 2026).

Key:
[1] = system: wheat; experiment: Greenhouse comparison of wheat growth after 25 mM seed treatments of three dithiophosphates; assay type: in vivo; settings: 25 mM seed treatment in diluted SPRET, 7% w/v, 21 days after planting
Procedure: (§1) All greenhouse experiments took place under a 16-hour photoperiod with temperatures set to 22° C. day and 18° C. night.
Dithiophosphates have different chemical properties depending on the length of their chains. For instance, the length of the carbon chain influences solubility of the chemical and the rate of H2S release. Growth of wheat when treated with 25 mM seed treatments of three different DTPs: dibutyldithiophosphate (C4), dioctyldithiophosphate (C8), and dihexyldecycldithiophosphate (C16) was evaluated. Chemical amount per seed used in 25 mM seed treatment applications is described in Table 1. Seed was treated with a 25 mM solution in which the DTP was dissolved in a low concentration of SPRET non-ionic surfactant (Method 1 below). After seeds had dried, they were sown in moist potting soil at a rate of 4 seeds per pot and then not watered for 5 days. There were 5 reps for each treatment where each rep was the average from a single pot. Measurements were collected 21 days after planting. Tiller number was improved for each of the three DTP treatments but was most improved with the dibutyl dithiophosphate (C4) source (FIG. 4).
(§2) Two seed treatment methods were examined: 1) Seed treated with DBDTP applied using a non-ionic surfactant and 2) Seed treated with DBDTP added to commonly used pesticide seed treatments (Example 8). For this testing, DBDTP was used as the dithiophosphate source. Note that the seed treatment concentration and volume is not standard across plant species. Each species tolerates a different level of DBDTP and the volume used to treat each species is dependent on seed size. After adding treatment to seed, seed was rolled for 5 minutes. Seed was then exposed to air and allowed to dry completely prior to planting.
(§3) For this method, the non-ionic wetter/spreader surfactant used for all treatments was SPRET (Helena Holding Company). The lowest recommended SPRET concentration was selected from the product label (1.25 mL/L H2O).

[2] = system: wheat; experiment: Greenhouse tests to identify ideal DBDTP seed treatment concentrations for wheat (SPRET surfactant); assay type: in vivo
Procedure: as §1, §2, §3
Greenhouse tests to identify ideal DBDTP seed treatment concentrations: A 7% w/v solution was used for each DBDTP treatment to achieve an even coating of wheat seeds. For each DBDTP level, small amounts of DBDTP were dissolved in the SPRET solution according to Table 2 and seed was treated with a 7% w/v solution. Five seeds were sown in 6″ pots and averaged for a single rep. Each DBDTP treatment had three replications.

[3] = system: MT Dagmar spring wheat; experiment: Field trial of DBDTP treated wheat seed; assay type: in vivo
Procedure: Seed treatment levels consisted of 0, 12.5, 25, 50, and 100 mM DBDTP as in Table 2 and applied in a 7% w/v solution. All seed for each treatment (1000 g) was treated at one time and then once dried it was weighed out for planting in single rows. For each seed treatment level, 15 reps were planted using a complete, randomized block design. Each rep consisted of a 10′, 2 row plot. Plots were seeded at a rate of 10 g/row. Seed was tractor planted, and prior to planting, the field was worked, and N was delivered to achieve 390 Ibs urea/acre. […] The 12.5 mM and 25 mM seed treatments appear to be the best concentrations to boost grain yield as well, as these treatments yielded an average of 3.5-5% higher respectively than the 0 mM control (FIG. 7B). An ideal treatment range encompasses the 12.5 mM and 25 mM treatments and high end of ideal concentrations likely lies between the 25 mM and 50 mM treatments.

[4] = system: pea; experiment: Pea germination test (cigar roll method) in aqueous DBDTP; assay type: in vivo; settings: at all levels of DBDTP tested, 7 days
Procedure: Pea: For germination tests, 25 pea seeds were placed within each roll of germination paper using the cigar method described above. Measurements were recorded after 7 days with n=250.

[5] = system: Provider bush beans; experiment: Field trial of DBDTP treated green bean seed; assay type: in vivo
Procedure: Seed treatment levels consisted of 0, 175 mM, 350 mM, 700 mM, and 1.4 M DBDTP (Table 3) and seed was treated with a 5% w/v solution of diluted SPRET surfactant and DBDTP. For each seed treatment level, 15 reps were planted using a complete, randomized block design. Each rep consisted of a 3′, 2 row plot with 18 seeds planted per row. Entire plants were harvested at maturity and biomass was averaged for each row. Each row was considered a single rep. For each plot of treated seed, biomass was increased compared to the 0 mM control (FIG. 8A). […] Depending on whether the goal was to increase seed weight, or plant biomass, an ideal treatment range encompasses the 175 mM, 350 mM, and 700 mM treatments. These concentrations correspond to a range of 0.07-0.28 mg DBDTP/seed.

[6] = system: wheat; experiment: Wheat germination test (cigar roll method) in aqueous DBDTP; assay type: in vivo; settings: wheat seeds in germination paper rolls, 7 days, compared to the 0 mg/L control; 41.2 μM-1.03 mM
Procedure: Wheat: For germination tests, 50 wheat seeds were placed within a roll of germination paper using the cigar roll method (Bai C, 2013, J Exp Bot, 64:1745-1753) with n=50. Rolls were placed upright in tubs containing varying concentrations of DBDTP in water, such that the end of the roll was submerged 3″ into the solution. Lids were placed on tubs, then shoot and root length measurements were recorded after 7 days.

[7] = system: Avondale lentil; experiment: Greenhouse test of DBDTP seed treatment concentration for lentil growth; assay type: in vivo
Procedure: Testing was carried out in the greenhouse. Seed was treated according to Table 4. Prior to planting, pots were watered and seed was sown into moist potting soil. Pots were not watered for 5 days after planting to avoid flushing DBDTP out of the pot. […] Seed was treated with a 1.5% w/v solution of diluted SPRET surfactant with addition of DBDTP. Early plant growth was boosted between treatment concentrations 0.188 M-1.7 M. A likely beneficial treatment range lies between 0.03-0.26 mg/seed.

[8] = system: pea; experiment: Greenhouse trial, pea with aqueous delivery of DBDTP; assay type: in vivo; settings: 4 weeks after planting
Procedure: as §1
Pea: Prior to planting, pots were watered and seed was sown into moist potting soil. Immediately after planting, each pot was watered with 200 mL water containing, 0, 5, 25, 50, 100, or 500 mg dissolved DBDTP. Pots were not watered for ~5 days after planting to avoid flushing DBDTP out of the pot.

[9] = system: MT 457 green field pea; experiment: Field trial of DBDTP treated green field pea (with pesticide seed treatments); assay type: in vivo
Procedure: (§4) For this method, DBDTP amounts were combined with commonly used seed treatment pesticides using the recommended, crop-specific amount on the product label. The pesticides that were used include Obvius Plus Specimen fungicide seed treatment (BASF Corporation), Dyna-Shield imidacloprid 5 (Loveland Products), and Cruiser Maxx Vibrance Cereals (Syngenta). Pesticide amounts correspond to species-specific recommended amounts on the product label. After treatments were added to seeds, seed was rolled 5 minutes and allowed to dry completely.
Seed treatment levels consisted of 0, 52, 103, 207, and 413 mM DBDTP (Table 6). Seed was treated with a 1.7% w/v solution that included DBDTP and seed treatment pesticides Dyna-Shield and Obvius (Table 6). After seed was treated and dried, it was inoculated with N Charge Inoculant for Pea, Vetch, and Lentil (Verdesian; 1.40 g/450 g seed) and planted within the same day as inoculating. For each seed treatment level, 15 reps were planted using a complete, randomized block design. Each rep consisted of a 10′, 2 row plot with 60 seeds planted per row. Mature seed was harvested for each plot. […] Seed yield was increased under all treatment levels tested, in a range of 0.04-0.31 mg/seed.

[10] = system: corn; settings: addition to a commercial liquid starter fertilizer applied in furrow with the seeds; cited from earlier work
[11] = system: wheat; experiment: Greenhouse test of DBDTP added to Cruiser Maxx Vibrance Cereals slurry for wheat; assay type: in vivo
Procedure: as §4
DBDTP was added to a slurry of Cruiser Maxx Vibrance Cereals according to Table 8. Prior to the addition of DBDTP, the pesticide was diluted 1:1 Cruiser:H2O. DBDTP was added to the diluted Cruiser, such that 2.1 mg DBDTP was added to 62.5 μL to treat 5 g of seed. This experiment was planted in the greenhouse, and at 14 days after planting, the 25 mM treated seed was taller and had more tillers than the 0 mM control (FIG. 13). This experiment was planted in two separate greenhouses-one where the lights had been recently replaced with new LED lights, and one where the old light system remained. […] The main difference observed between the lights was that growth was much enhanced under the new lights, boosting tillering overall. This means that tillering differences due to DBDTP treatment may be observed earlier under the new LED light system.

[12] = system: Cherry Belle F1 radish; experiment: Field trial of DBDTP treated radish seed; assay type: in vivo
Procedure: Seed treatment levels consisted of 0, 12.5, 25, 50, and 100 mM DBDTP (Table 5) and seed was treated with a 7% w/v solution of diluted SPRET surfactant and DBDTP. For each seed treatment level, 15 reps were planted using a complete, randomized block design. Each rep consisted of a single 3′ row plot. Plots were seeded at a rate of 36 seeds/row and thinned to 4-6″ apart. Root fresh weight was averaged for each row and each row was considered a single rep. Root biomass was increased compared to the control at the 12.5 mM treatment level (FIG. 10). This corresponded to 0.001 mg/seed. Radish root growth likely be enhanced with an application rate in a range of 0.001-0.005 mg DBDTP/seed.

[13] = system: chickpea; experiment: Greenhouse test of DBDTP seed treatment concentration for chickpea growth (pesticide slurry); assay type: in vivo
Procedure: as §4
This test took place in the greenhouse. Seed was treated according to Table 7. Prior to planting, pots were watered and seed was sown into moist potting soil. Pots were not watered for 5 days after planting to avoid flushing DBDTP out of the pot. […] An ideal range likely falls between 0.05-0.46 mg DBDTP/seed.

[14] = system: wheat; experiment: Greenhouse trial, wheat with slow-release fertilizer and aqueous delivery of DBDTP; assay type: in vivo; settings: 5 and 25 mg/pot DBDTP in 200 mL water, in the presence of fertilizer (Osmocote), 4 weeks after planting
Procedure: as §1
Wheat: To test whether the germination test growth enhancement response observed in wheat would still occur in the presence of added nitrogen fertilizer, wheat was grown under varying levels of slow-release fertilizer (Osmocote) and then watered in with an aqueous solution of DBDTP (see Carter J M, et al., 2019, J. Agric Food Chem. 67:11883-11892). Osmocote was added to potting soil according to the label to achieve low or medium fertilization rates. Prior to planting, pots were watered and seed was sown into moist potting soil. Immediately after planting, each pot was watered with 200 mL water containing, 0, 5, 25, 50, 100, or 500 mg dissolved DBDTP. Pots were not watered for ~5 days after planting to avoid flushing DBDTP out of the pot.

[15] = seed treatments of up to 50 mM DBDTP, 35 days after planting
[16] = 25 mM in Cruiser Maxx Vibrance Cereals slurry, 14 days after planting, vs 0 mM control

In the case of “dihexyldecycldithiophosphate [dihexyldecycldithiophosphate (C16)]”, the tiller number [1] is reported as “improved”.
For `CCCCOP(=S)(S)OCCCC` [DBDTP, dibutyl dithiophosphate], the germination ([2]; seed treatment doses higher than 50 mM, 7% w/v in SPRET) was “reduce germination”, the plant height [2, 15] was “enhanced” and the tiller number [2, 15] was “enhanced”. The “grain yield, average increase over the 0 mM control” value ([3]; 12.5 mM seed treatment) was 3.5%, the “grain yield, average increase over the 0 mM control” value ([3]; 25 mM seed treatment) was 5% and the “plant growth and yield” value ([3]; 100 mM DBDTP seed treatment) was “significantly diminished”. The tiller number ([3]; 12.5 and 25 mM seed treatment, 4 weeks after planting, vs 0 mM control) was “significantly higher”, the “growth response of pea seedlings” value [4] was “positive growth response” and the tiller number [1] was “most improved”. The plant biomass ([5]; each plot of treated seed (175 mM, 350 mM, 700 mM, 1.4 M), harvested at maturity, vs 0 mM control) was “increased”, the seed pod weight ([5]; lowest level tested (175 mM), vs control) was “increased” and the “Likely ideal DBDTP range, green bean” value ([5]; seed treatment, green bean) was 0.07-0.28 mg/seed. For the same compound, the “DBDTP concentration range with positive growth response (shoot and root length)” value [6] was 10 to 250 mg/L, the “growth response of lentil” value ([7]; around the 375 mM treatment level, 14 days after planting, 1.5% w/v SPRET) was “positive DBDTP growth response” and the “Likely ideal (beneficial) DBDTP range, lentil” value ([7]; seed treatment, lentil) was 0.03-0.26 mg/seed. The “growth response (pea vine length), best doses” value ([8]; 100 and 500 mg/pot DBDTP) was “greatest boost to growth”, the “growth response (pea vine length)” value ([8]; each DBDTP treatment (5, 25, 50, 100, 500 mg/pot in 200 mL water)) was “positive response” and the “seed yield, best treatment” value ([9]; 413 mM treated seed) was “highest yielding”. For the same compound, the seed yield ([9]; each plot of treated seed (52, 103, 207, 413 mM), with Dyna-Shield and Obvius, vs control) was “increased”, the “Likely ideal DBDTP range, pea (range in which seed yield was increased)” value ([9]; seed treatment, pea) was 0.04-0.31 mg/seed and the corn yield [10] was “increases corn yield”. The plant height [11, 16] was “taller”, the tiller number [11, 16] was “more tillers” and the “performance against control in both greenhouses (new LED lights, old light system)” value ([11]; 25 mM treated seed) was “outperformed the control”. For the same compound, the “root biomass (root fresh weight)” value ([12]; 12.5 mM treatment level (0.001 mg/seed), vs control) was “increased”, the “Likely ideal DBDTP range, radish” value ([12]; seed treatment, radish) was 0.001-0.005 mg/seed and the “growth response of chickpea” value ([13]; 100 mM treatment level in pesticide slurry, 14 days after planting) was “positive DBDTP growth response”. The “Likely ideal DBDTP range, chickpea” value ([13]; seed treatment, chickpea) was 0.05-0.46 mg/seed and the tiller number [14] was “boost to tiller number”.
For `CCCCCCCCOP(=S)(S)OCCCCCCCC` [dioctyldithiophosphate (C8), dioctyldithiophosphate], the tiller number [1] was “improved”.
